US8338565B2, “Macrocyclic compounds for inhibition of tumor necrosis factor alpha” (Ensemble Therapeutics Corporation, priority 2008, dated 2012)
Where two headings read alike, the source gives them in different places. Bridge positions count the residues as written; N and C are the ends. Square brackets hold non-standard residues; d marks the D form. Peptide text beside a SMILES is read from it. Bip = N[C@@H](Cc1ccc(-c2ccccc2)cc1)C(=O)O; Phe(4-NH2) = Nc1ccc(C[C@H](N)C(=O)O)cc1; d2Thi = N[C@H](Cc1cccs1)C(=O)O; GABA = NCCCC(=O)O

Experiments:
[1] = test system: TNF-α (degradation of IkB in HeLa cells or A431 cells); experiment: Human cell-based assay: inhibition of TNF-α induced degradation of IkB; conditions: for inhibition at 5 µM: read-out: Inhibition at Various Compound Concentrations, 5 μM; for inhibition at 10 µM: read-out: Inhibition at Various Compound Concentrations, 10 μM
[2] = biological target: T1, TNFα / TNFα receptor (TNFα R1/Fc) (Homo sapiens, UniProt P01375); experiment: Inhibition of binding of TNFα to the TNFα receptor (plate ELISA competition); conditions: Table 2
T1 construct: purchased R&D Systems
Outline: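 Plates were coated with TNFα at 15 nM. Test compound and 8.33 nM receptor-Fc (PBST, 2% DMSO) were first mixed in solution for 30 min at room temperature, then transferred to the plates for another 30 min. Competition was read by absorbance at 450 nm after HRP anti-human IgG Fc detection with TMB.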

[3] = 5 μM compound, HeLa or A431 cells
[4] = 10 μM compound, HeLa or A431 cells
[5] = read-out: Activity (IC50, inhibition of TNFα binding to TNFα R1/Fc)
[6] = Activity (IC50, inhibition of TNFα binding to TNFα R1/Fc)

T1 sequence (P01375 77-233 limits assumed, species assumed): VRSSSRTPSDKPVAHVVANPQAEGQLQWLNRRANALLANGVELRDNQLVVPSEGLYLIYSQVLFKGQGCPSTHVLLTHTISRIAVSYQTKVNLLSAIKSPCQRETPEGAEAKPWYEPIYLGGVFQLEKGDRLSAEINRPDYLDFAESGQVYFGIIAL

| IC50 [2, 5] | Compound | inhibition at 5 µM [1, 3] | inhibition at 10 µM [1, 4] | inhibition at 5 µM [1] | inhibition at 10 µM [1] | IC50 [2, 6] |
| --- | --- | --- | --- | --- | --- | --- |
| < 10 µM | O=C(O)[C@@H]1Cc2ccc(cc2)NC(=O)[C@H](O)[C@@H](O)C(=O)N[C@H](Cc2ccccc2)C(=O)N[C@@H](Cc2ccc(-c3ccccc3)cc2)C(=O)N[C@H](Cc2ccccc2)C(=O)N1 [Compound 313] | < 10% | 10 to 50% |  |  |  |
| < 10 µM | O=C(O)[C@@H]1Cc2ccc(cc2)NC(=O)[C@H](O)[C@@H](O)C(=O)N[C@H](Cc2ccsc2)C(=O)N[C@@H](Cc2ccc(-c3ccccc3)cc2)C(=O)N[C@H](Cc2ccccc2)C(=O)N1 [Compound 318] | < 10% | 10 to 50% |  |  |  |
| < 10 µM | O=C(O)CCNC(=O)[C@@H]1Cc2ccc(cc2)OCC(=O)N[C@@H](Cc2cccs2)C(=O)N[C@H](Cc2ccc(-c3ccccc3)cc2)C(=O)N[C@@H](Cc2ccccc2)C(=O)N1 [Compound 319] | < 10% | < 10% |  |  |  |
|  | O=C1COc2ccc(cc2)C[C@@H](C(=O)N[C@@H](CCc2ccccc2)C(=O)O)NC(=O)[C@@H](CCc2ccccc2)NC(=O)[C@H](Cc2ccc(-c3ccccc3)cc2)NC(=O)[C@@H](Cc2cccs2)N1 [Compound 320] |  |  | 10 to 50% | > 80% | < 10 µM |
| < 10 µM | O=C(O)CNC(=O)[C@@H]1Cc2ccc(cc2)OCC(=O)N[C@H](Cc2cccs2)C(=O)N[C@@H](Cc2ccc(-c3ccccc3)cc2)C(=O)N[C@H](CCc2ccccc2)C(=O)N1 [Compound 321] | < 10% | 10 to 50% |  |  |  |
|  | O=C(O)CN(Cc1ccccc1)C(=O)[C@@H]1Cc2ccc(cc2)OCC(=O)N[C@H](Cc2cccs2)C(=O)N[C@@H](Cc2ccc(-c3ccccc3)cc2)C(=O)N[C@H](CCc2ccccc2)C(=O)N1 [Compound 323] |  |  | 10 to 50% | 10 to 50% | < 10 µM |
|  | O=C1COc2ccc(cc2)C[C@@H](C(=O)N[C@H](Cc2ccccc2)C(=O)O)NC(=O)[C@@H](CCc2ccccc2)NC(=O)[C@H](Cc2ccc(-c3ccccc3)cc2)NC(=O)[C@@H](Cc2cccs2)N1 [Compound 324] |  |  | 10 to 50% | 10 to 50% | < 10 µM |
| < 10 µM | COC(=O)[C@H](CC(=O)O)NC(=O)[C@@H]1Cc2ccc(cc2)OCC(=O)N[C@H](Cc2cccs2)C(=O)N[C@@H](Cc2ccc(-c3ccccc3)cc2)C(=O)N[C@H](CCc2ccccc2)C(=O)N1 [Compound 325] |  | < 10% |  |  |  |
| < 10 µM | C[C@H](NC(=O)[C@@H]1Cc2ccc(cc2)OCC(=O)N[C@@H](Cc2cccs2)C(=O)N[C@@H](Cc2ccc(-c3ccccc3)cc2)C(=O)N[C@@H](Cc2ccccc2)C(=O)N1)C(=O)O [Compound 326] | 10 to 50% | 10 to 50% |  |  |  |
| < 10 µM | COC(=O)[C@H](CC(=O)O)NC(=O)[C@@H]1Cc2ccc(cc2)OCC(=O)N[C@@H](Cc2cccs2)C(=O)N[C@@H](Cc2ccc(-c3ccccc3)cc2)C(=O)N[C@@H](Cc2ccccc2)C(=O)N1 [Compound 327] | 10 to 50% | < 10% |  |  |  |
|  | O=C1COc2ccc(cc2)C[C@@H](C(=O)N[C@@H](CCc2ccccc2)C(=O)O)NC(=O)[C@H](Cc2ccccc2)NC(=O)[C@H](Cc2ccc(-c3ccccc3)cc2)NC(=O)[C@H](Cc2cccs2)N1 [Compound 328] |  |  |  | 10 to 50% | < 10 µM |
| < 10 µM | COC(=O)c1ccc(-c2ccc(C[C@@H]3NC(=O)[C@@H](Cc4cccs4)NC(=O)[C@H](O)[C@@H](O)C(=O)Nc4ccc(cc4)C[C@@H](C(=O)O)NC(=O)[C@@H](Cc4ccccc4)NC3=O)cc2)cc1 [Compound 332] | < 10% |  |  |  |  |
| < 10 µM | O=C(O)CCNC(=O)[C@@H]1Cc2ccc(cc2)OCC(=O)N[C@@H](Cc2cccs2)C(=O)N[C@@H](Cc2ccc(-c3ccccc3)cc2)C(=O)N[C@@H](Cc2ccccc2)C(=O)N1 [Compound 339] | < 10% | 10 to 50% |  |  |  |
| < 10 µM | C[C@@H](NC(=O)[C@@H]1Cc2ccc(cc2)OCC(=O)N[C@@H](Cc2cccs2)C(=O)N[C@@H](Cc2ccc(-c3ccccc3)cc2)C(=O)N[C@@H](Cc2ccccc2)C(=O)N1)C(=O)O [Compound 341] |  | < 10% |  |  |  |
| < 10 µM | O=C1COc2ccc(cc2)C[C@@H](C(=O)N[C@@H](Cc2ccc(O)cc2)C(=O)O)NC(=O)[C@H](Cc2ccccc2)NC(=O)[C@H](Cc2ccc(-c3ccccc3)cc2)NC(=O)[C@H](Cc2cccs2)N1 [Compound 343] | < 10% | 10 to 50% |  |  |  |
|  | O=C1COc2ccc(cc2)C[C@@H](C(=O)NC2(C(=O)O)CC2)NC(=O)[C@H](Cc2ccccc2)NC(=O)[C@H](Cc2ccc(-c3ccccc3)cc2)NC(=O)[C@H](Cc2cccs2)N1 [Compound 344] |  |  | 10 to 50% | 50 to 80% | < 10 µM |
| < 10 µM | O=C(O)[C@H](Cc1ccccc1)NC(=O)[C@@H]1Cc2ccc(cc2)NC(=O)[C@H](O)[C@@H](O)C(=O)N[C@H](Cc2cccs2)C(=O)N[C@@H](Cc2ccc(-c3ccccc3)cc2)C(=O)N[C@H](CCc2ccccc2)C(=O)N1 [Compound 350] | 10 to 50% | 10 to 50% |  |  |  |
| 10 to 30 µM | CC(=O)NCCCC[C@@H]1NC(=O)[C@@H](Cc2ccc(-c3ccccc3)cc2)NC(=O)[C@H](Cc2cccs2)NC(=O)COc2ccc(cc2)C[C@@H](C(=O)O)NC1=O [Compound 369] | < 10% | < 10% |  |  |  |
| < 10 µM | NCCCC(=O)N[C@H]1CC(=O)Nc2ccc(cc2)C[C@@H](C(=O)O)NC(=O)[C@@H](Cc2ccccc2)NC(=O)[C@H](Cc2ccc(-c3ccccc3)cc2)NC(=O)[C@@H](Cc2cccs2)NC1=O [Compound 379] (H-[GABA]D[d2Thi][Bip][dF][Phe(4-NH2)]-OH; lactam 2-6) | 50 to 80% | 10 to 50% |  |  |  |
| < 10 µM | NCCCC(=O)N[C@@H]1CC(=O)Nc2ccc(cc2)C[C@@H](C(=O)O)NC(=O)[C@@H](Cc2ccccc2)NC(=O)[C@H](Cc2ccc(-c3ccccc3)cc2)NC(=O)[C@@H](Cc2cccs2)NC1=O [Compound 380] (H-[GABA][dD][d2Thi][Bip][dF][Phe(4-NH2)]-OH; lactam 2-6) | < 10% | < 10% |  |  |  |
| < 10 µM | NCCCC(=O)N[C@H]1CC(=O)N[C@H](Cc2cccs2)C(=O)N[C@@H](Cc2ccc(-c3ccccc3)cc2)C(=O)N[C@H](Cc2ccccc2)C(=O)N[C@H](C(=O)O)Cc2ccc(cc2)NC1=O [Compound 381] | < 10% | < 10% |  |  |  |

| Compound | IC50 [2, 5] | inhibition at 5 µM [1, 3] | inhibition at 10 µM [1, 4] | inhibition at 5 µM [1] | inhibition at 10 µM [1] | IC50 [2, 6] |
| --- | --- | --- | --- | --- | --- | --- |
| O=C1COc2ccc(cc2)C[C@@H](C(=O)O)NC(=O)[C@H](Cc2ccccc2)NC(=O)[C@H](Cc2ccc(-c3ccc(F)cc3)cc2)NC(=O)[C@H](Cc2cccs2)N1 [Compound 363] | < 10 µM |  |  | 50 to 80% | 10 to 50% |  |
| COc1ccc(-c2ccc(C[C@@H]3NC(=O)[C@H](Cc4cccs4)NC(=O)COc4ccc(cc4)C[C@@H](C(=O)O)NC(=O)[C@H](Cc4ccccc4)NC3=O)cc2)cc1 [Compound 364] | < 10 µM |  |  | 50 to 80% | 10 to 50% |  |
| O=C1COc2ccc(cc2)C[C@@H](C(=O)O)NC(=O)[C@H](Cc2ccccc2)NC(=O)[C@H](Cc2ccc(-c3ccncc3)cc2)NC(=O)[C@H](Cc2cccs2)N1 [Compound 366] | < 10 µM |  |  | < 10% | < 10% |  |
